Source: patent publication US4351948A, “Imidazole hydrazone derivatives” (priority 1980, dated 1982)
Read-outs that look alike come from different tables or passages of the source.

Columns and labels:
[1] = system: Clostridium sporogenes ATCC 19404; test: Minimal inhibitory concentration against anaerobic bacteria; assay type: cell-based; conditions: ATCC19404, 24 h
C. sporogenes ATCC 19404 = test: Antianaerobic activity, MIC by standard broth dilution method (Table II); assay type: cell-based; conditions: Clostridium sporogenes, ATCC19404, 24 h, read-out: Minimal Inhibitory Concentration (MIC)
In short: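 Minimum inhibitory concentration determined by standard broth dilution against a single Clostridium sporogenes strain under anaerobic test conditions.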

[2] = system: platelet thromboxane generation; test: Inhibition of platelet thromboxane generation (TxB2, collagen-stimulated human platelet rich plasma); assay type: cell-based; conditions: Homo sapiens, 10 min, read-out: Activity IC50 (50% inhibition of TxB2 generation)
Description: The compounds used according to the invention as anti-thrombotics were tested by the following method for their ability to inhibit platelet thromboxane generation.
Human venous blood was collected from healthy male donors, who had denied any medication in the previous 14 days. Nine volumes of blood were mixed with one volume of 3.24% trisodium citrate. The citrated blood was centrifuged at 160 g for 10 mins. at 22° C. to obtain platelet rich plasma (PRP). The platelets were then counted on a Coulter counter, and the platelet count was adjusted to 200,000 per μl with plasma.
The PRP was then dispensed as aliquots into micro-Eppendorf tubes, maintained at 37° C. in a dry bath. The compounds dissolved either in saline, ethanol, or DMSO were added in duplicate to the PRP aliquots to produce final concentrations of 0.3, 3 and 30 μg/ml. When ethanol and DMSO were used as the vehicle, triplicate controls containing the same percentage of vehicle as the test compounds were made. The final concentration or organic solvent was never more than 0.1%, which in previous experiments had no effect on TxB2 generation.
Following a 10 min. incubation with test compounds or vehicle, collagen was added to produce a final concentration of 8 μg/ml. The tubes were then whirly-mixed for 15 seconds and replaced in the dry bath for a further 10 minutes, controls received saline instead of collagen. The reaction was then stopped by rapid centrifugation, 15,000 g for 3 mins. The plasma was removed and frozen at -29° C. until assayed.
Briefly, 100 μl aliquots, in tricine buffered saline+0.8% gelatin (pH 8.0) of the following were incubated together for 1 hour at 37° C.: thromboxane Tx B2 (plasma extract, spiked plasma extract or standards 20 to 20,000 pg/ml), ^3 H--TxB2 (approximately 15,000 dpm) and anti-TxB2 antiserum (0.5 μg/100 μl). The free and protein bound ^3 H--TxB2 were separated by ammonium sulphate precipitation followed by centrifugation. 300 μl of the supernatant was added to an aqueous scintillation fluid, and the radioactivity present was counted in a liquid scintillation counter. The binding of ^3 H--TxB2 in the absence of added TxB2 was approximately 55%. The least amount of TxB2 to be detected accurately in the plasma was 0.08 ng/ml. Cross reactivity with other prostaglandins is less than 0.005% except PGD2 which is 1%.
Thus plasma samples were assayed to give a rough approximation of TxB2 content. The plasma was then appropriately diluted and assayed in duplicate to give accurate values.
The amount of TxB2 generated by the collagen was calculated by subtracting mean values obtained for the saline stimulated platelets from the mean values obtained from the collagen stimulated platelets. Then the amount of TxB2 generated in the presence of each concentration of compound was expressed as a % control and dose response curves were then constructed to determine the concentration of compound which produced a 50% inhibition.

[3] = system: Bacteroides uniformis ATCC 8492; test: Minimal inhibitory concentration against anaerobic bacteria; conditions: ATCC8492, 24 h
C. albicans [4] = test: Recovery of viable candida cells from the kidneys of infected mice (p.o. and i.v. treatment); assay type: in vivo; conditions: 25 mg/kg 1 h and 24 h after infection
Description: Mice receive 25×10^4 cells of C. albicans i.v. Treatments (25 mg/kg) administered in PEG/Dextrose 1 h and 24 h after infection. Animals sacrified 48 h after infection and kidneys excised, weighed, homogenized and decimal dilutions spread on glucose-peptone agar.

[5] = system: Bacteroides fragilis ATCC 23745; test: Minimal inhibitory concentration against anaerobic bacteria; conditions: ATCC23745, 24 h
C. albicans [6] = test: Vaginal candida infection in rats, oral or topical treatment; assay type: in vivo
From the text: Effect of oral or topical administration of HC274 and ketoconazole on vaginal candida infection in rats. Clearance of C. albicans from rat vagina following oral or topical treatment (as percentage of control).
Topical treatment: 1% solution in polyethylene glycol administrated twice daily for 3 days.
Oral treatment: Once daily for 3 days.

[7] = system: Trichophyton mentagrophytes; test: Experimental Trichophyton mentagrophytes infection in guinea pigs; assay type: in vivo
From the text: Effect of oral or topical administration of HC274, HC344, Clotrimazole, and Ketoconazole on experimental Trichophyton mentagrophytes infection in guinea pigs.
*Based on degree of hair loss, erythema, desquamation, Max. = 100
Treatments administered in Carbopol® gel, once daily days 5-10.

Klebsiella pneumoniac = test: Anti-bacterial activity, zone diameter; assay type: cell-based; conditions: 50 μg; Klebsiella pneumoniac; read-out: Zone diameter given by 50 μg of drug
From the text: (§1) The anti-bacterial activity of the compound HC274 according to the present invention was also compared with the activity of known anti-bacterial agents with the following results: […]

Streptococcus pyrogenes = test: Anti-bacterial activity, zone diameter; assay type: cell-based; conditions: 50 μg; Streptococcus pyrogenes; read-out: Zone diameter given by 50 μg of drug
From the text: as §1

Nocardia asteroides = test: Anti-bacterial activity, zone diameter; assay type: cell-based; conditions: 50 μg, read-out: Zone diameter given by 50 μg of drug
From the text: as §1

candida albicans = test: Oral treatment: recovery of viable candida albicans from the kidneys of infected mice; assay type: in vivo
From the text: Effect of oral treatment with HC274, HC316, HC390, HC415 and Ketoconazole on the recovery of viable candida albicans from the kidneys of infected mice.

[8] = read-out: Minimal Inhibitory Concentration, Test 1, 24 hours at 37° C.
[9] = read-out: Minimal Inhibitory Concentration, Test 2, 24 hours at 37° C.
[10] = read-out: Minimal Inhibitory Concentration, Test 3, 24 hours at 37° C.

Question: What does the source list for `Cl.Clc1ccc(/C(Cn2ccnc2)=N\Nc2ccc(Cl)cc2Cl)cc1` [HC274, (E)-1-(4-chlorophenyl)-2-(1H-imidazol-1-yl)ethanone, 2,4-dichlorophenylhydrazone, hydrochloride]?
Answer: MIC ([1]; Test 1, 24 hours at 37° C.): 2.5 µg/mL; MIC ([1]; Test 2, 24 hours at 37° C.): 2.5 µg/mL; MIC ([1]; Test 3, 24 hours at 37° C.): 7.5 µg/mL; MIC (C. sporogenes ATCC 19404; Test 1): 2.5 µg/mL; MIC (C. sporogenes ATCC 19404; Test 2): 2.5 µg/mL; MIC (C. sporogenes ATCC 19404; Test 3): 7.5 µg/mL; IC50 [2]: 15.9 µM; MIC [3, 8]: 2.5 µg/mL; MIC [3, 9]: 2.5 µg/mL; MIC [3, 10]: 5 µg/mL; No. of CFU/g kidney at 48 h (C. albicans [4]; i.v.): 9 × 10^2 CFU/g kidney; No. of CFU/g kidney at 48 h (C. albicans [4]; p.o.): 3.3 × 10^3 CFU/g kidney; MIC [5, 8]: 2.5 µg/mL; MIC [5, 9]: 5 µg/mL; MIC [5, 10]: 7.5 µg/mL; Clearance of C. albicans from rat vagina (as percentage of control) (C. albicans [6]; oral, 10 mg/kg once daily for 3 days): 94.3 percentage of control; Clearance of C. albicans from rat vagina (as percentage of control) (C. albicans [6]; oral, 20 mg/kg once daily for 3 days): 91.3 percentage of control; Clearance of C. albicans from rat vagina (as percentage of control) (C. albicans [6]; topical, 1% solution in polyethylene glycol twice daily for 3 days): 95.5 percentage of control; Disease rating (degree of hair loss, erythema, desquamation, Max. = 100) ([7]; 40 mg/kg p.o., day 5 after infection): 100; Disease rating (degree of hair loss, erythema, desquamation, Max. = 100) ([7]; 40 mg/kg p.o., day 10 after infection): 46.9; Disease rating (degree of hair loss, erythema, desquamation, Max. = 100) ([7]; topical, 1% w/w in Carbopol gel once daily days 5-10, day 10 after infection): 35.4; Disease rating (degree of hair loss, erythema, desquamation, Max. = 100) ([7]; topical, 1% w/w in Carbopol gel, day 5 after infection): 100; zone of inhibition at 50 µg/disc (Klebsiella pneumoniac): 0 mm; zone of inhibition at 50 µg/disc (Streptococcus pyrogenes): 9 mm; zone of inhibition at 50 µg/disc (Nocardia asteroides): 11 mm; Recovery of C.albicans (as percentage of control) (candida albicans; 5 mg/kg): 84.2 percentage of control; Recovery of C.albicans (as percentage of control) (candida albicans; 20 mg/kg): 47.8 percentage of control
